# According to patent US5118690A, “Pharmaceutical tetrahydroisoquinolines” (John Wyeth & Brother Limited, priority 1989, dated 1992):
# Experiments:
# GABA autoreceptor [1] = experiment: antagonist activity at GABA autoreceptors by blockade of agonist (muscimol)-induced inhibition of potassium-evoked [3H]-GABA release from rat cortex slices in vitro (Procedure 1); assay type: biochemical; details: for Antagonism at GABA autoreceptor pA2 values: Procedure 1, agonist muscimol, rat cerebral cortex slices; for IC50: inhibition of the effect of a single concentration of muscimol, read-out: IC50 value (GABA autoreceptor antagonism)
# From the text: (§1) Advantageously compounds of formula I appear to be selective in that they display little or no activity at GABAA receptors. The following test procedures were used to measure antagonist activity at (a) GABA autoreceptors by blockade of agonist-induced inhibition of potassium-evoked GABA release from rat cortex in vitro (Procedure 1); and (b) GABAA receptors by antagonism of agonist-induced depolarization of the isolated rat vagus nerve (Procedure 2):
# Slices (0.25×0.25×2.0 mm) of rat cerebral cortex are prepared using a McIlwain tissue chopper. The slices are incubated in Krebs-Henseleit solution containing [^3 H]-GABA (10^-7 M) in the presence of amino-oxyacetic acid (AOAA) for 20 minutes at 37° C., rinsed with 5ml aliquots of Krebs-Henseleit solution and transferred to 10 superfusion chambers (volume 300μl). The slices are continuously superfused with Krebs-Henseleit solution (0.4 ml min^-1) containing AOAA (10^-5 M) and fractions of the superfusate collected every 4 minutes. Transmitter release is induced by 4 minute exposure to a Krebs-Henseleit solution containing 25 mM potassium ion (with concomitant reduction in sodium to maintain osmolarity) after 68 […] and 92 (S2) minutes of superfusion. The antagonist compound under study is added to the superfusing medium 10 minutes prior to the first potassium stimulation and remains throughout the superfusion. The GABA autoreceptor is activated by adding the agonist muscimol 20 minutes before the second potassium stimulation. The residual radioactivity in the slices at the end of the experiment together with that in the superfusate. fractions is measured by liquid scintillation counting
# Calculations: The amount of radioactivity in each fraction is expressed as a percentage of the total radioactivity in the tissue at the start of the respective collection period. The amount of radioactivity released above basal by the increased potassium is calculated and the ratio S2/S1 obtained. The S2/S1 ratio from muscimol-treated slices is expressed as a percentage of the control drug-free S2/S1 ratio. A dose-response curve for the agonist muscimol is constructed and the effect of antagonists is measured by their ability to displace this dose-response curve to the right. From this measurement a pA2 value can be calculated. Alternatively, an IC50 value for antagonists can be calculated by inhibiting the effect of a single concentration of muscimol with increasing concentrations of antagonist.
# GABAA receptor [2] = experiment: antagonism at GABAA receptors: antagonism of GABA-induced depolarization of the isolated rat vagus nerve (Procedure 2); assay type: biochemical
# From the text: as §1
# Male Sprague-Dawley rats (250-400g) are killed by a blow to the head and cervical dislocation. The cervical vagus nerves are transferred into Krebs' solution at room temperature and the connective tissue sheath removed. The vagus nerves are placed in two-compartment Perspex baths to permit extracellular recording of agonist induced depolarizations. Each nerve projects from one compartment to the next by way of a grease filled slot, the grease serving to insulate the compartments from each other. […] One compartment is continuously perfused (5ml min^-1) with Krebs' solution at 27° C. to which agonist and antagonist drugs are added. […] Non-cumulative concentration-response curves to GABA (10^-6 to 3×10^-4 M) are obtained using a 5 min contact time and 10-20 min wash period and the effect of the test antagonist compound is measured by its ability to shift this concentration-response curve to the right.
# GABA autoreceptor [3] = details: previously shown; cited from earlier work
# GABAA receptor [4] = details: non-selective; cited from earlier work
# [5] = known; cited from earlier work
Compound,Antagonism at GABA autoreceptor pA2 values (GABA autoreceptor [1]),IC50 (GABA autoreceptor [1]) [µM],also measured
"c1csc(C2NCCc3ccccc32)c1 (racemic) [E, 1,2,3,4-Tetrahydro-1-(2-thienyl)isoquinoline]",8.4,,
"COc1cc2c(cc1OC)[C@H]([C@@H]1CCCO1)NCC2 (relative stereo) [A, 1RS,2'SR-1-(2-Tetrahydrofuranyl)-1,2,3,4-tetrahydro-6,7 dimethoxyisoquinoline]",7.0,,Antagonism at GABAA receptors (GABAA receptor [2]; at 10^-4 M): inactive
"COc1cc2c(cc1OC)[C@H]([C@H]1CCCO1)NCC2 (relative stereo) [B, 1RS,2'RS-1-(2-Tetrahydrofuranyl) -1,2,3,4- Tetrahydro-6,7-dimethoxyisoquinoline]",5.2,,
"c1ccc2c(c1)CCN[C@H]2[C@@H]1CCCO1 (relative stereo) [Compound C, 1RS, 2'SR-1-(2-Tetrahydrofuranyl)-1,2,3,4-tetrahydroisoquinoline]",8.5,,
"CN1CCc2ccccc2[C@@H]1[C@@H]1CCCO1 (relative stereo) [Compound D, 1RS, 2'SR-1-(2-Tetrahydrofuranyl)-2-methyl-1,2,3,4-tetrahydroisoquinoline]",9.2,,Antagonism at GABAA receptors (GABAA receptor [2]; at 10^-5 M): inactive
"c1ccc2c(c1)CCN[C@H]2[C@@H]1CCCO1 (single isomer, unassigned) [(+) isomer of Compound C]",,8.6,
"CN1CCc2ccccc2[C@@H]1[C@@H]1CCCO1 (single isomer, unassigned) [(+) isomer of Compound D, (+)1R*,2'S*-1-(2-tetrahydrofuranyl)-2-methyl-1,2,3,4-tetrahydroisoquinoline]",,0.0027,
"c1ccc2c(c1)CCN[C@H]2[C@@H]1CCCO1 (single isomer, unassigned) [(-) enantiomer of Compound C]",,0.02,
"CN1CCc2ccccc2[C@@H]1[C@@H]1CCCO1 (single isomer, unassigned) [(-) isomer of Compound D, (-) 1R*,2'S*-1-(2-tetrahydrofuranyl)-2-methyl-1,2,3,4-tetrahydroisoquinoline]",,0.26,
"Oc1ccc(C2NCCc3cc(O)c(O)cc32)cc1 (stereo not drawn) [Example 12, 1-(4-Hydroxyphenyl)-6,7-dihydroxy-1,2,3,4-tetrahydroisoquinoline]",,0.48,
CN1CCc2cc3c(cc2[C@H]1[C@@H]1OC(=O)c2c1ccc1c2OCO1)OCO3 [bicuculline],,,activity at GABA autoreceptor (GABA autoreceptor [3]): antagonists at the GABA autoreceptor; activity at GABAA receptor (GABAA receptor [4]): also active at the GABAA receptor; convulsant action [5]: known convulsants
picrotoxin,,,activity at GABA autoreceptor (GABA autoreceptor [3]): antagonists at the GABA autoreceptor; activity at GABAA receptor (GABAA receptor [4]): also active at the GABAA receptor; convulsant action [5]: known convulsants
